Drawing on patent US8822449B2, “Substituted aminoindanes and analogs thereof, and the pharmaceutical use thereof” (Sanofi, priority 2008, dated 2014), this text covers IC50 and inhibition for 30 molecules.

For this experiment, the target named is T1, sodium-proton exchanger of subtype 3 (NHE3) (Homo sapiens, UniProt P48764).
T1 construct: expressed in transfected cells
T1 sequence (P48764 26-834): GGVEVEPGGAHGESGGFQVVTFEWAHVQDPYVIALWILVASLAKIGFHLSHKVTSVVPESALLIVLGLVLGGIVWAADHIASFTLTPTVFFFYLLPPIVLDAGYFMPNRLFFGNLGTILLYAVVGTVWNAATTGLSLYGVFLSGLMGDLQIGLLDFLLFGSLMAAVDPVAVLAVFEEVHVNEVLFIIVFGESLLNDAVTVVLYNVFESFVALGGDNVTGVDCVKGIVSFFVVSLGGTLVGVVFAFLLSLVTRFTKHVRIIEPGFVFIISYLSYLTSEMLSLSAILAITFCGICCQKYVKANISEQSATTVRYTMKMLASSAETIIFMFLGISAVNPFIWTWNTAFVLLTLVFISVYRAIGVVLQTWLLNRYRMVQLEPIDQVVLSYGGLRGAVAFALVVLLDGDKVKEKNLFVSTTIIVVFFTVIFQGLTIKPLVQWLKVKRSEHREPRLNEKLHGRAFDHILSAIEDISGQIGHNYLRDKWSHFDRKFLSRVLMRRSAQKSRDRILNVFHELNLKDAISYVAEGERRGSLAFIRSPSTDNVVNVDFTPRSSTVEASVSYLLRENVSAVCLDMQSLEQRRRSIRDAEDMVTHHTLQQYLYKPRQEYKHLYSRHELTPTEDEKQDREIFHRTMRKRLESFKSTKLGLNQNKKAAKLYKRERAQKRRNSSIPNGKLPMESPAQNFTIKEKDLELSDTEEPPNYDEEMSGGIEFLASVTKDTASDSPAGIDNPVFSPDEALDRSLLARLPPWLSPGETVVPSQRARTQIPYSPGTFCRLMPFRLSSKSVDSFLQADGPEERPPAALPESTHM
Nature of the experiment: Recovery of intracellular pH (pHi) after acidification in LAP1 cells stably expressing NHE3 (BCECF fluorescence, FLIPR). Format: cell-based. Particulars: LAP1 cells stably expressing NHE3; pH recovery after acidification; range 1 is % inhibition at 10 μM; read-out: Activity range (inhibitory effect on NHE3).

Regarding `Cc1ccc2c(c1)C(Oc1ccc(S(N)(=O)=O)cc1)C(N1CCCC1)C2` (racemic) [Example 475, 4-(rac-trans-(1,2)-6-methyl-2-pyrrolidin-1-ylindan-1-yloxy)benzenesulfonamide], the IC50 lay within 1 to 10 µM.
On the same count and under the same terms, for `N[C@@H]1CCCN([C@@H]2Cc3ccccc3[C@H]2Oc2cccc(CN3CCCCC3)c2)C1` (racemic) [Example 58, (R)-1-[rac-trans-(1,2)-1-(3-piperidin-1-ylmethylphenoxy)indan-2-yl]piperidin-3-ylamine] the value was 1 to 10 µM; for `Cn1ccn(-c2cccc(O[C@H]3c4ccccc4C[C@@H]3N3CCCC3)c2)c1=O` (racemic) [Example 352, 1-methyl-3-[3-(rac-trans-(1,2)-2-pyrrolidin-1-ylindan-1-yloxy)phenyl]-1,3-dihydroimidazol-2-one], < 1 µM.
As to `Cc1ccc(O[C@H]2c3ccccc3C[C@@H]2N2CCCC2)c(-c2c(C)noc2C)c1` [Example 408, 3,5-dimethyl-4-[5-methyl-2-(trans-(1S,2S)-2-pyrrolidin-1-ylindan-1-yloxy)phenyl]isoxazole], the inhibition at 10 µM lay in the range of 20 to 50%.
With `Cc1c(O[C@H]2c3ccccc3C[C@@H]2N2CCCC2)ccc(-n2c(C)nnc2C)c1C` (racemic) [Example 488, 4-[2,3-dimethyl-4-(rac-trans-(1,2)-2-pyrrolidin-1-ylindan-1-yloxy)phenyl]-3,5-dimethyl-4H-[1,2,4]triazole], the IC50 is < 1 µM.
Consider `COc1cc(O[C@H]2c3ccccc3CC[C@@H]2N2CCC[C@@H](N)C2)ccc1Br` (racemic) [Example 63, (R)-1-[rac-trans-(1,2)-1-(4-bromo-3-methoxyphenoxy)-1,2,3,4-tetrahydronaphthalen-2-yl]piperidin-3-ylamine], for which the inhibition at 10 µM lay within 20 to 50%.
Still for that read-out and setting: for `CC(C)c1nc(C(C)(C)C)cn1-c1ccc(O[C@H]2c3cc(Cl)cc(F)c3C[C@@H]2N2CC[C@@H](O)C2)cc1` [Example 724, (R)-1-{trans-(1S,2S)-1-[4-(4-tert-Butyl-2-isopropyl-imidazol-1-yl)-phenoxy]-6-chloro-4-fluoro-indan-2-yl}-pyrrolidin-3-ol] the value was 20 to 50%.
Take `COCCc1ccc(O[C@@H]2c3ccccc3C[C@H]2N2CCC(N)C2)cc1` (mixture of isomers) [Example 342, 1-{rac-trans-(1,2)-1-[4-(2-methoxyethyl)phenoxy]indan-2-yl}pyrrolidin-3-ylamine]: the IC50 is 1 to 10 µM.
On the same count and under the same terms, in the case of `CCc1nc(C)cn1-c1ccc(O[C@H]2c3cc(Cl)cc(F)c3C[C@@H]2N2CC[C@@H](O)C2)cc1` [Example 719, (R)-1-{trans-(1S,2S)-6-Chloro-1-[4-(2-ethyl-4-methyl-imidazol-1-yl)-phenoxy]-4-fluoro-indan-2-yl}-pyrrolidin-3-ol] it was 1 to 10 µM; in that of `Cc1cc(O[C@H]2c3cc(F)cc(Cl)c3C[C@@H]2N2CCC[C@@H](N)C2)ccc1S(=O)(=O)C(F)(F)F` (racemic) [Example 90, (R)-1-[rac-trans-(1,2)-4-chloro-6-fluoro-1-(3-methyl-4-trifluoromethanesulfonylphenoxy)indan-2-yl]piperidin-3-ylamine], 1 to 10 µM.
Still for that read-out and setting: for `NS(=O)(=O)c1ccc(O[C@H]2c3cc(Cl)cc(Cl)c3C[C@@H]2N2CC[C@@H](O)C2)c(F)c1` [Example 741, 4-[trans-(1S,2S)-4,6-Dichloro-2-((R)-3-hydroxy-pyrrolidin-1-yl)-indan-1-yloxy]-3-fluoro-benzenesulfonamide] the value was < 1 µM.
For the molecule `COc1cccc(F)c1O[C@H]1c2ccccc2CC[C@@H]1N1CCC[C@@H](N)C1` (racemic) [Example 44, (R)-1-[rac-trans-(1,2)-1-(2-fluoro-6-methoxyphenoxy)-1,2,3,4-tetrahydronaphthalen-2-yl]piperidin-3-ylamine], the inhibition at 10 µM was in the range of 20 to 50%.
`CS(=O)(=O)c1ccc(O[C@@H]2c3ccccc3C[C@@H]2NC2CCC2)cc1` (racemic) [Example 706, Cyclobutyl-[rac-cis-(1,2)-1-(4-methanesulfonyl-phenoxy)-indan-2-yl]-amine]: the inhibition at 10 µM was in the range of 20 to 50%.
Turning to `N#Cc1ccc(O[C@@H]2c3ccccc3C[C@H]2N2CCC(N)C2)c(Cl)c1` (mixture of isomers) [Example 543, 4-[rac-trans-(1,2)-2-(3-aminopyrrolidin-1-yl)indan-1-yloxy]-3-chlorobenzonitrile], the IC50 lay in the range of 1 to 10 µM.
Take `NCC1CCN([C@@H]2Cc3ccccc3[C@H]2Oc2ccc3[nH]cc(CC(N)=O)c3c2)CC1` (racemic) [Example 388, 2-{5-[rac-trans-(1,2)-2-(4-aminomethylpiperidin-1-yl)indan-1-yloxy]-1H-indol-3-yl}acetamide]: the IC50 was 1 to 10 µM.
As for `N[C@H]1CCCN([C@H]2CCc3ccccc3[C@@H]2Oc2ccc(F)c3cccnc23)C1` (racemic) [Example 188, (S)-1-[rac-trans-(1,2)-1-(5-fluoroquinolin-8-yloxy)-1,2,3,4-tetrahydronaphthalen-2-yl]piperidin-3-ylamine], the IC50 is 1 to 10 µM.
Regarding `Cc1cc(O[C@H]2c3ccccc3C[C@@H]2N2CCCC2)ccc1S(C)(=O)=O` (racemic) [Example 271, 1-[rac-trans-(1,2)-1-(4-methanesulfonyl-3-methylphenoxy)indan-2-yl]pyrrolidine], the IC50 is 1 to 10 µM.
The same measure, in the same setting: in the case of `CCc1ccc(O[C@@H]2c3ccccc3C[C@H]2N2C[C@H]3CNC[C@H]3C2)c(C(C)(C)C)c1` (racemic) [Example 12, 2-[rac-trans-(1,2)-1-(2-tert-butyl-4-ethylphenoxy)indan-2-yl]octahydropyrrolo[3,4-c]pyrrole] it was < 1 µM.
The same measure, in the same setting: in the case of `CC(=O)Nc1cccc(O[C@H]2c3cc(Cl)ccc3C[C@@H]2N2CCCC2)c1` (racemic) [Example 658, N-[3-(rac-trans-(1,2)-6-chloro-2-pyrrolidin-1-ylindan-1-yloxy)phenyl]acetamide] it was < 1 µM; in that of `CC(C)c1nccn1-c1ccc(O[C@H]2c3cc(Cl)cc(Cl)c3C[C@@H]2N2CC[C@@H](O)C2)cc1` [Example 732, (R)-1-{trans-(1S,2S)-4,6-Dichloro-1-[4-(2-isopropyl-imidazol-1-yl)-phenoxy]-indan-2-yl}-pyrrolidin-3-ol], 1 to 10 µM; in that of `CS(=O)(=O)c1ccc(O[C@H]2c3cc(Cl)ccc3C[C@@H]2N2CCNCC2)cc1` (racemic) [Example 289, 1-[rac-trans-(1,2)-6-chloro-1-(4-methanesulfonylphenoxy)indan-2-yl]piperazine], < 1 µM.
With `N[C@@H]1CCCN([C@@H]2Cc3ccccc3[C@H]2Oc2ccc(-n3ccnc3)cc2)C1` (racemic) [Example 72, (R)-1-[rac-trans-(1,2)-1-(4-imidazol-1-ylphenoxy)indan-2-yl]piperidin-3-ylamine], the IC50 was < 1 µM.
As for `CS(=O)(=O)c1ccccc1O[C@H]1c2cc(Cl)cc(Cl)c2C[C@@H]1N1CCCC1` [Example 247, 1-[(1S,2S)-4,6-dichloro-1-(2-methanesulfonylphenoxy)indan-2-yl]pyrrolidine], the inhibition at 10 µM lay in the range of 20 to 50%.
For the molecule `CC(=O)Nc1cccc(OC2c3ccccc3CC2N2CC[C@@H](N3CCCC3)C2)c1` (mixture of isomers) [Example 670, N-[rac-trans-(1,2)-3-((R)-2-[1,3′]bipyrrolidinyl-1′-ylindan-], the inhibition at 10 µM lay within 20 to 50%.
`N[C@@H]1CCCN([C@@H]2Cc3ccccc3[C@H]2Oc2cccc3[nH]ccc23)C1` (racemic) [Example 30, (R)-1-[rac-trans-(1,2)-1-(1H-indol-4-yloxy)indan-2-yl]piperidin-3-ylamine]: the IC50 lay within 1 to 10 µM.
With `N[C@H]1CCCN([C@H]2CCc3ccccc3[C@@H]2Oc2cccc(F)c2)C1` (racemic) [Example 168, (S)-1-[rac-trans-(1,2)-1-(3-fluorophenoxy)-1,2,3,4-tetrahydronaphthalen-2-yl]piperidin-3-ylamine], the inhibition at 10 µM was 20 to 50%.
Same read-out and setting: for `COc1cccc(CC#N)c1O[C@H]1c2ccccc2CC[C@@H]1N1CCOCC1` (racemic) [Example 213, [3-methoxy-2-(rac-trans-(1,2)-2-morpholin-4-yl-1,2,3,4-tetrahydronaphthalen-1-yloxy)phenyl]acetonitrile] the value was 20 to 50%.
Still for that read-out and setting: for `N#Cc1ccc(S[C@H]2c3ccccc3C[C@@H]2N2CCCC2)cc1` [Example 455, 4-((1S,2S)-2-pyrrolidin-1-ylindan-1-ylsulfanyl)benzonitrile] the value was 20 to 50%; for `Cc1ccc(O[C@H]2c3ccccc3CC[C@@H]2N2CCC[C@@H](N)C2)cc1Cl` (racemic) [Example 53, (R)-1-[rac-trans-(1,2)-1-(3-chloro-4-methylphenoxy)-1,2,3,4-tetrahydronaphthalen-2-yl]piperidin-3-ylamine], 20 to 50%.
Turning to `NS(=O)(=O)c1ccc(O[C@H]2c3cc(F)ccc3C[C@@H]2N2CCCC2)cc1` (racemic) [Example 474, 4-(rac-trans-(1,2)-6-fluoro-2-pyrrolidin-1-ylindan-1-yloxy)benzenesulfonamide], the IC50 was in the range of 1 to 10 µM.
